Structures are written as SMILES.

The subject of the experiment is HCT-116. The experiment in a line: Cytotoxicity against human HCT116 cells. Type of experiment: functional, cell-based.
As to `COc1ccc(C2=C(c3ccccc3)C(=O)N3CCC[C@H]3C2)cc1`, the midpoint of inhibition, the IC50, lay at 390 nM.
Regarding `COc1cc2c3c(c4cc(OC)c(OC)cc4c2cc1OC)CN1CCCC1C3` (racemic) [(+/-)-TYLOPHORINE], the IC50 (as a rule, the point on the concentration scale where inhibition reaches its midpoint) is 670 nM. This IC50 is about 1.7-fold higher than that of the compound before.
To `COc1ccc(C2=C(c3ccccc3)C(=O)N3CCC[C@@H]3C2)cc1` belongs 200 nM.

The values above are taken from ChEMBL document CHEMBL1149887, “Enantiospecific synthesis and cytotoxicity of 7-(4-methoxyphenyl)-6-phenyl-2,3,8,8a-tetrahydroindolizin-5(1H)-one enantiomers” (Bioorg Med Chem, 2008).
